Data from patent US20260022142A1, “MACROCYCLIC IMMUNOMODULATORS” (Bristol-Myers Squibb Company, priority 2022, published 2026).
Bridge positions count the residues as written; N and C are the ends. Square brackets hold non-standard residues; d marks the D form. Peptide text beside a SMILES is read from it. * marks the point of attachment. ξ: configuration not given here. Phe(4-COOH) = N[C@@H](Cc1ccc(C(=O)O)cc1)C(=O)O; Bip = N[C@@H](Cc1ccc(-c2ccccc2)cc1)C(=O)O; Phe(3-Me) = Cc1cccc(C[C@H](N)C(=O)O)c1; hArg = N=C(N)NCCCC[C@H](N)C(=O)O; 4Pal = N[C@@H](Cc1ccncc1)C(=O)O; Cha = N[C@@H](CC1CCCCC1)C(=O)O; Cit = NC(=O)NCCC[C@H](N)C(=O)O; Thr(3ξ) = CC(O)[C@H](N)C(=O)O; 12Ado = NCCCCCCCCCCCC(=O)O; Carboxymethyl = O=C(O)C*; Orn = NCCC[C@H](N)C(=O)O; Aun = NCCCCCCCCCCC(=O)O; Dab = NCC[C@H](N)C(=O)O; Dap = NC[C@H](N)C(=O)O; AEEA = NCCOCCOCC(=O)O

Molecular target: T1, PD-1/PD-L1 interaction (PE-labeled human PD-L1-Ig binding to Jurkat cell line over-expressing human PD-1) (Homo sapiens, UniProt Q15116)
T1 construct: expressed in transfected cells; host or cells: Jurkat
Experiment: Jurkat-PD-1 Cell Binding High-Content Screening Assay (CBA)
Type: cell-based
Conditions: Jurkat cell line over-expressing human PD-1; PE-labeled PD-L1-Ig 20 nM final; read-out: Jurkat hPD1-PDL1 IC50
Procedure, shortened: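 Jurkat cells over-expressing human PD-1 (8×10^3 per well, DMEM/10% FCS) preincubated with compound 2 h at 37° C, then PE-labeled human PD-L1-Ig (20 nM final) added for 1 h. Cells fixed with paraformaldehyde, Hoechst-stained, and bound fluorescence quantified by high-content imaging.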

T1 sequence (Q15116 25-288): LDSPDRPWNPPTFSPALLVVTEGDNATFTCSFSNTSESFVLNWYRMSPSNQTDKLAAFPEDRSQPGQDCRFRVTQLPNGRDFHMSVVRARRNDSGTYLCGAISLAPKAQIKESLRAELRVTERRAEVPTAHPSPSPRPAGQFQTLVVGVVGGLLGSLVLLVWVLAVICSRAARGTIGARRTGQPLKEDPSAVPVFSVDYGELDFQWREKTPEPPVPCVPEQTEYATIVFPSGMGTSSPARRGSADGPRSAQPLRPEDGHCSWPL

Compound | IC50
Cc1cccc(C[C@@H]2NC(=O)[C@H](CC(=O)O)NC(=O)[C@H](Cc3ccc(OCC(=O)O)cc3)NC(=O)[C@H](CCCCNC(=N)N)NC(=O)CSC[C@@H](C(=O)N[C@@H](CCCN)C(=O)N[C@@H](CO)C(=O)NCCCCCCCCCCCC(=O)O)NC(=O)[C@H](C(C)O)NC(=O)[C@H](C(C)C)NC(=O)[C@H](CC3CCCCC3)NC(=O)[C@H](CCN)NC(=O)[C@@H](CC(C)C)NC(=O)[C@H](CCCN)NC(=O)[C@H](CCCNC(N)=O)NC(=O)[C@H](Cc3ccc(-c4ccccc4)cc3)NC(=O)[C@H](C(C)C)NC2=O)c1 (stereo partly drawn) [Compound 3187] ({CH2CO}-[hArg]Y(Carboxymethyl)D[Phe(3-Me)]V[Bip][Cit][Orn][dL][Dab][Cha]V[Thr(3ξ)]C[Orn]S[12Ado]-OH; thioether N-14) | 9.7 nM
Cc1cccc(C[C@@H]2NC(=O)[C@H](CC(=O)O)NC(=O)[C@H](Cc3ccc(OCC(=O)O)cc3)NC(=O)[C@H](CCCCNC(=N)N)NC(=O)CSC[C@@H](C(=O)N[C@@H](CN)C(=O)N[C@@H](CCC(=O)O)C(=O)NCCCCCCCCCCCC(=O)O)NC(=O)[C@H](C(C)O)NC(=O)[C@H](C(C)C)NC(=O)[C@H](CC3CCCCC3)NC(=O)[C@H](CCN)NC(=O)[C@@H](CC(C)C)NC(=O)[C@H](CCCN)NC(=O)[C@H](CCCNC(N)=O)NC(=O)[C@H](Cc3ccc(-c4ccccc4)cc3)NC(=O)[C@H](C(C)C)NC2=O)c1 (stereo partly drawn) [Compound 3188] ({CH2CO}-[hArg]Y(Carboxymethyl)D[Phe(3-Me)]V[Bip][Cit][Orn][dL][Dab][Cha]V[Thr(3ξ)]C[Dap]E[12Ado]-OH; thioether N-14) | 302 nM
CC(C)C[C@@H]1NC(=O)[C@H](Cc2c[nH]c3ccccc23)NC(=O)[C@H](CC(=O)O)NC(=O)[C@H](Cc2ccc(OCC(=O)O)cc2)NC(=O)[C@H](CCCCNC(=N)N)NC(=O)CSC[C@@H](C(=O)NCC(=O)NCCOCCOCC(=O)N[C@@H](CCCN)C(=O)NCCOCCOCC(=O)NCCCCCCCCCCCC(=O)O)NC(=O)[C@H](CO)NC(=O)[C@H](C(C)C)NC(=O)[C@H](CC2CCCCC2)NC(=O)[C@H](CCN)NC(=O)[C@@H](CC(C)C)NC(=O)[C@H](CCCN)NC(=O)[C@H](C(C)C)NC(=O)[C@H](Cc2ccc(-c3ccccc3)cc2)NC1=O [Compound 3189] ({CH2CO}-[hArg]Y(Carboxymethyl)DWL[Bip]V[Orn][dL][Dab][Cha]VSCG[AEEA][Orn][AEEA][12Ado]-OH; thioether N-14) | 21.7 nM
CC(C)C[C@H]1NC(=O)[C@H](CCCN)NC(=O)[C@H](C(C)C)NC(=O)[C@H](Cc2ccc(-c3ccccc3)cc2)NC(=O)[C@H](C(C)C)NC(=O)[C@H](Cc2c[nH]c3ccccc23)NC(=O)[C@H](CC(=O)O)NC(=O)[C@H](Cc2ccc(OCC(=O)O)cc2)NC(=O)[C@H](CCCCNC(=N)N)NC(=O)CSC[C@@H](C(=O)NCC(=O)NCCOCCOCC(=O)N[C@@H](CCCN)C(=O)NCCOCCOCC(=O)NCCCCCCCCCCCC(=O)O)NC(=O)[C@H](CO)NC(=O)[C@H](C(C)C)NC(=O)[C@H](CC2CCCCC2)NC(=O)[C@H](CCN)NC1=O [Compound 3190] ({CH2CO}-[hArg]Y(Carboxymethyl)DWV[Bip]V[Orn][dL][Dab][Cha]VSCG[AEEA][Orn][AEEA][12Ado]-OH; thioether N-14) | 20.4 nM
CC(C)C[C@H]1NC(=O)[C@H](CCCN)NC(=O)[C@H](C(C)C)NC(=O)[C@H](Cc2ccc(-c3ccccc3)cc2)NC(=O)[C@H](C(C)C)NC(=O)[C@H](Cc2c[nH]c3ccccc23)NC(=O)[C@H](CC(=O)O)NC(=O)[C@H](Cc2ccc(OCC(=O)O)cc2)NC(=O)[C@H](CN)NC(=O)CSC[C@@H](C(=O)N[C@@H](CCCN)C(=O)NCCOCCOCC(=O)NCCCCCCCCCCC(=O)O)NC(=O)[C@H](C(C)O)NC(=O)[C@H](C(C)C)NC(=O)[C@H](CC2CCCCC2)NC(=O)[C@H](CCN)NC1=O (stereo partly drawn) [Compound 3191] ({CH2CO}-[Dap]Y(Carboxymethyl)DWV[Bip]V[Orn][dL][Dab][Cha]V[Thr(3ξ)]C[Orn][AEEA][Aun]-OH; thioether N-14) | 11.4 nM
CC(C)C[C@H]1NC(=O)[C@H](CCCN)NC(=O)[C@H](C(C)C)NC(=O)[C@H](Cc2ccc(-c3ccccc3)cc2)NC(=O)[C@H](C(C)C)NC(=O)[C@H](Cc2c[nH]c3ccccc23)NC(=O)[C@H](CC(=O)O)NC(=O)[C@H](Cc2ccc(OCC(=O)O)cc2)NC(=O)[C@H](CN)NC(=O)CSC[C@@H](C(=O)N[C@@H](CCCN)C(=O)NCCOCCOCC(=O)NCCCCCCCCCCC(=O)O)NC(=O)[C@H](CO)NC(=O)[C@H](C(C)C)NC(=O)[C@H](CC2CCCCC2)NC(=O)[C@H](C(C)O)NC1=O (stereo partly drawn) [Compound 3192] ({CH2CO}-[Dap]Y(Carboxymethyl)DWV[Bip]V[Orn][dL][Thr(3ξ)][Cha]VSC[Orn][AEEA][Aun]-OH; thioether N-14) | 18.2 nM
CC(C)C[C@H]1NC(=O)[C@H](CCCN)NC(=O)[C@H](C(C)C)NC(=O)[C@H](Cc2ccc(-c3ccccc3)cc2)NC(=O)[C@H](C(C)C)NC(=O)[C@H](Cc2c[nH]c3ccccc23)NC(=O)[C@H](CC(=O)O)NC(=O)[C@H](Cc2ccc(OCC(=O)O)cc2)NC(=O)[C@H](CN)NC(=O)CSC[C@@H](C(=O)NCCOCCOCC(=O)N[C@@H](CCCN)C(=O)NCCCCCCCCCCC(=O)O)NC(=O)[C@H](C(C)O)NC(=O)[C@H](C(C)C)NC(=O)[C@H](CC2CCCCC2)NC(=O)[C@H](CC(N)=O)NC1=O (stereo partly drawn) [Compound 3193] ({CH2CO}-[Dap]Y(Carboxymethyl)DWV[Bip]V[Orn][dL]N[Cha]V[Thr(3ξ)]C[AEEA][Orn][Aun]-OH; thioether N-14) | 14.4 nM
CC(C)C[C@@H]1NC(=O)[C@H](Cc2c[nH]c3ccccc23)NC(=O)[C@H](CC(=O)O)NC(=O)[C@H](Cc2ccc(C(=O)O)cc2)NC(=O)[C@H](Cc2ccncc2)NC(=O)CSC[C@@H](C(=O)N[C@@H](CCN)C(=O)NCCOCCOCC(=O)N[C@@H](CCCN)C(=O)NCCCCCCCCCCC(=O)O)NC(=O)[C@H](CO)NC(=O)[C@H](C(C)C)NC(=O)[C@H](CC2CCCCC2)NC(=O)[C@H](CCN)NC(=O)[C@@H](CC(C)C)NC(=O)[C@H](CCCN)NC(=O)[C@H](C(C)C)NC(=O)[C@H](Cc2ccc(-c3ccccc3)cc2)NC1=O [Compound 3195] ({CH2CO}-[4Pal][Phe(4-COOH)]DWL[Bip]V[Orn][dL][Dab][Cha]VSC[Dab][AEEA][Orn][Aun]-OH; thioether N-14) | 57.3 nM
CC(C)C[C@H]1NC(=O)[C@H](CCCN)NC(=O)[C@H](C(C)C)NC(=O)[C@H](Cc2ccc(-c3ccccc3)cc2)NC(=O)[C@H](C(C)C)NC(=O)[C@H](Cc2c[nH]c3ccccc23)NC(=O)[C@H](CC(=O)O)NC(=O)[C@H](Cc2ccc(OCC(=O)O)cc2)NC(=O)[C@H](CCCCNC(=N)N)NC(=O)CSC[C@@H](C(=O)NCC(=O)NCCOCCOCC(=O)N[C@@H](CCCN)C(=O)NCCCCCCCCCCC(=O)O)NC(=O)[C@H](CN)NC(=O)[C@H](C(C)C)NC(=O)[C@H](CC2CCCCC2)NC(=O)[C@H](CCN)NC1=O [Compound 3196] ({CH2CO}-[hArg]Y(Carboxymethyl)DWV[Bip]V[Orn][dL][Dab][Cha]V[Dap]CG[AEEA][Orn][Aun]-OH; thioether N-14) | 11.6 nM
